In ChEMBL document CHEMBL1147400, “Novel antimitotic dibenzocyclo-octadiene lignan constituents of the stem bark of Steganotaenia araliacea” (1993):
≈ marks a conversion by molar mass, not a printed value.

Assays:
Col2 = assay: Cytotoxicity against human Col2 cells; assay type: functional; conditions: read-out: ED50 (the source's name)
Lu1 = assay: Cytotoxicity against human Lu1 cells; assay type: functional; conditions: read-out: ED50 (the source's name)
[1] = Antimitotic activity against rat ASK cells assessed as reversal of astrocyte morphology at 0.16 ug/ml; assay type: functional
[2] = Antimitotic activity against rat ASK cells assessed as reversal of astrocyte morphology at 100 ug/ml; assay type: functional
ZR-75-1 = assay: Cytotoxicity against human ZR-75-1 cells; assay type: functional; conditions: read-out: ED50 (the source's name)
[3] = Antimitotic activity against rat ASK cells assessed as reversal of astrocyte morphology at 20 ug/ml; assay type: functional
[4] = Cytotoxicity against human BC1 cells; assay type: functional; conditions: read-out: ED50 (the source's name)
[5] = Antimitotic activity against rat ASK cells assessed as reversal of astrocyte morphology at 4 ug/ml; assay type: functional
[6] = Antimitotic activity against rat ASK cells assessed as reversal of astrocyte morphology at 0.8 ug/ml; assay type: functional
[7] = Antimitotic activity against rat ASK cells assessed as reversal of astrocyte morphology at 0.032 ug/ml; assay type: functional
HT = assay: Cytotoxicity against human HT cells; assay type: functional; conditions: read-out: ED50 (the source's name)
KB = assay: Cytotoxicity against human KB cells; assay type: functional; conditions: read-out: ED50 (the source's name)
SK-MEL-2 = assay: Cytotoxicity against human SK-MEL-2 cells; assay type: functional; conditions: read-out: ED50 (the source's name)
[8] = Cytotoxicity against human U373 cells; assay type: functional, U-373MG ATCC; conditions: U373 MG, read-out: ED50 (the source's name)
[9] = Cytotoxicity against multidrug-resistant human KBV1 cells; assay type: functional; conditions: KB-V1, read-out: ED50 (the source's name)
Bos taurus [10] = species: Bos taurus; assay: Inhibition of calf thymus tubulin polymerization by turbidimetric analysis
A-431 = assay: Cytotoxicity against human A431 cells; assay type: functional; conditions: read-out: ED50 (the source's name)
Bos taurus [11] = species: Bos taurus; assay: Inhibition of calf brain tubulin polymerization by turbidimetric analysis
LNCaP = assay: Cytotoxicity against human LNCAP cells; assay type: functional; conditions: read-out: ED50 (the source's name)
[12] = Antimitotic activity against rat ASK cells assessed as reversal of astrocyte morphology at 0.0064 ug/ml; assay type: functional
[13] = Antimitotic activity against rat ASK cells assessed as reversal of astrocyte morphology at 0.00128 ug/ml; assay type: functional

Row | SMILES | EC50 (Col2) [µg/mL] | EC50 (Lu1) [µg/mL] | Activity [1] [%] | Activity [2] [%] | EC50 (ZR-75-1) [µg/mL] | Activity [3] [%] | EC50 [4] [µg/mL] | Activity [5] [%] | Activity [6] [%] | Activity [7] [%] | EC50 (HT) [µg/mL] | EC50 (KB) [µg/mL] | EC50 (SK-MEL-2) [µg/mL] | EC50 [8] [µg/mL] | EC50 [9] [µg/mL] | EC50 (A-431) [µg/mL] | ED50 (Bos taurus [11]) [µg/mL] | EC50 (LNCaP) [µg/mL] | Activity [12] [%] | further results
1 | COc1cc2c(c(OC)c1OC)-c1cc3c(cc1[C@@H](OC(C)=O)C1COC(=O)[C@H]1C2)OCO3 (stereo partly drawn) [STEGANACIN] | 0.4 (≈ 0.876 µM) | 0.4 (≈ 0.876 µM) | 100 | 100 | 5 (≈ 11 µM) | 100 | 0.6 (≈ 1.31 µM) | 100 | 100 | 0 | 0.7 (≈ 1.53 µM) | 0.1 (≈ 0.219 µM) | > 20 | 0.1 (≈ 0.219 µM) | 0.2 (≈ 0.438 µM) | 0.2 (≈ 0.438 µM) | 1.7 (≈ 3.72 µM) |  |  | Activity (Bos taurus [10]): Dose-dependent effect
2 | C/C=C(/C)C(=O)O[C@@H]1c2cc3c(cc2-c2c(cc(OC)c(OC)c2OC)C[C@H]2C(=O)OC[C@H]12)OCO3 [EPISTEGANANGIN] | > 20 | 6.9 (≈ 13.9 µM) |  | 100 | 13.9 (≈ 28 µM) | 0 | 1.1 (≈ 2.22 µM) | 0 | 0 |  | 7.4 (≈ 14.9 µM) | 7.4 (≈ 14.9 µM) | 20 (≈ 40.3 µM) | > 20 | 0.9 (≈ 1.81 µM) | > 20 | 78.1 (≈ 157 µM) | > 20 |  | 
3 | C/C=C(/C)C(=O)O[C@H]1c2cc3c(cc2-c2c(cc(OC)c(OC)c2OC)C[C@H]2C(=O)OC[C@@H]21)OCO3 [STEGANANGIN] | 0.6 (≈ 1.21 µM) | 0.4 (≈ 0.806 µM) | 50 | 100 | 1 (≈ 2.01 µM) | 100 | 0.7 (≈ 1.41 µM) | 100 | 100 | 0 | 0.6 (≈ 1.21 µM) | 0.4 (≈ 0.806 µM) | 0.7 (≈ 1.41 µM) | > 20 | 0.7 (≈ 1.41 µM) | > 20 | 38.1 (≈ 76.7 µM) | 0.9 (≈ 1.81 µM) | 0 | 
4 | COc1cc2c(c(OC)c1OC)-c1ccc(OC)c(=O)cc1[C@@H](NC(C)=O)CC2 [COLCHICINE] | 0.001 (≈ 0.0025 µM) | 0.02 (≈ 0.0501 µM) | 0 | 100 | 0.1 (≈ 0.25 µM) | 100 | 0.008 (≈ 0.02 µM) | 100 | 70 | 0 | 0.004 (≈ 0.01 µM) | 0.02 (≈ 0.0501 µM) | 0.007 (≈ 0.0175 µM) | 0.005 (≈ 0.0125 µM) | 3.5 (≈ 8.76 µM) | 0.002 (≈ 0.00501 µM) | 7.4 (≈ 18.5 µM) | 0.06 (≈ 0.15 µM) | 0 | Activity [13]: 0%
